Counter-ions that a name gives are not always drawn.
How the values were obtained:
[1] = system: SPF male rats, OFA strain; test: Anti-inflammatory activity: paw swelling after subcutaneous plantar injection of carraghenine, oral administration; assay type: in vivo; conditions: for inhibition in vivo at 16 mg/kg / inhibition in vivo at 32 mg/kg / inhibition in vivo at 64 mg/kg / inhibition in vivo at 128 mg/kg / inhibition in vivo at 256 mg/kg / inhibition in vivo at 512 mg/kg / ED50 / inhibition in vivo at 4 mg/kg: Rattus norvegicus, po; for inhibition in vivo at 16 mg/kg / inhibition in vivo at 32 mg/kg / inhibition in vivo at 64 mg/kg / inhibition in vivo at 128 mg/kg / inhibition in vivo at 256 mg/kg / inhibition in vivo at 512 mg/kg / inhibition in vivo at 4 mg/kg / percentage reduction in the inflammation: carraghenine; for inhibition in vivo at 16 mg/kg / inhibition in vivo at 32 mg/kg / inhibition in vivo at 64 mg/kg / inhibition in vivo at 128 mg/kg / inhibition in vivo at 256 mg/kg / inhibition in vivo at 512 mg/kg / inhibition in vivo at 4 mg/kg: read-out: percentage reduction in the inflammation; for inhibition in vivo at 512 mg/kg: 512 mg/kg oral; for ED50 / ED50 (50% effective dose), anti-inflammatory: at the moment of greatest swelling of the controls; for ED50: read-out: ED50 (50% effective dose), anti-inflammatory; for inhibition in vivo at 4 mg/kg: 4 mg/kg oral; for percentage reduction in the inflammation / ED50 (50% effective dose), anti-inflammatory: rat; for ED50 (50% effective dose), anti-inflammatory: oral
Protocol: Anti-inflammatory activity
The products to be tested are administered orally to batches of 12 SPF male rats, OFA strain, weighing 120-130 g, 2 hours and 30 minutes (1/2 dose each time) before the subcutaneous plantar injection of 0.05 ml of a 1% strength solution of carraghenine. The volume of the back paw which received the phlogogenic agent is measured at regular intervals. The 50% effective dose is calculated at the moment of greatest swelling of the controls.
The results are given in Tables I to IV below, in which the percentage reduction in the inflammation is noted.

[2] = system: male mice (SPF1, OF1 strain); test: Analgesic activity: inhibition of pain reactions (abdominal twistings) after intraperitoneal phenylbenzoquinone, oral administration; assay type: in vivo; conditions: for inhibition in vivo at 64 mg/kg: 64 mg/kg oral; for ED50: read-out: ED50 (50% effective dose), analgesic; for percentage inhibition of pain reactions / ED50 (50% effective dose), analgesic: mouse; for ED50 (50% effective dose), analgesic: oral; for inhibition in vivo at 256 mg/kg: 256 mg/kg oral; for inhibition in vivo at 512 mg/kg: 512 mg/kg oral
Protocol: The products tested are administered orally to batches of 6 male mice (SPF1, OF1 strain) weighing 19-20 g.
1 hour later, 0.3 ml of a 0.02% strength solution of phenylbenzoquinone is injected intraperitoneally into each mouse and, from the 5th to the 10th minute after the latter treatment, the number of pain reactions (abdominal twistings) is counted.
Table V to VIII below give the percentage inhibition of these reactions.

[3] = Solubility in water; assay type: physicochemical; conditions: white powder, sodium salt
[4] = Mus musculus, po, 8 mg/kg oral, read-out: percentage inhibition of pain reactions
[5] = Mus musculus, po, 16 mg/kg oral, read-out: percentage inhibition of pain reactions
[6] = Mus musculus, po, 32 mg/kg oral, read-out: percentage inhibition of pain reactions
[7] = Mus musculus, po, read-out: percentage inhibition of pain reactions
[8] = Mus musculus, po, 128 mg/kg oral, read-out: percentage inhibition of pain reactions

CC1Cc2ccc(C(C)C(=O)O)cc2C1 (stereo not drawn) [Example 15, Sodium salt of 2-methyl-[2-methyl-indanyl-(5)]-acetic acid]
inhibition in vivo at 16 mg/kg ([1]; 16 mg/kg oral): 11% | inhibition in vivo at 32 mg/kg ([1]; 32 mg/kg oral): 20% | inhibition in vivo at 64 mg/kg ([1]; 64 mg/kg oral): 27% | inhibition in vivo at 128 mg/kg ([1]; 128 mg/kg oral): 41% | inhibition in vivo at 256 mg/kg ([1]; 256 mg/kg oral): 68% | inhibition in vivo at 512 mg/kg [1]: 72% | ED50 [1]: 160 mg/kg | inhibition in vivo at 8 mg/kg [2, 4]: 14% | inhibition in vivo at 16 mg/kg [2, 5]: 18% | inhibition in vivo at 32 mg/kg [2, 6]: 68% | inhibition in vivo at 64 mg/kg [2, 7]: 91% | ED50 ([2]; Mus musculus, po): 23 mg/kg | solubility in water [3]: soluble in water

CC(C(=O)O)c1ccc2c(c1)CC(C(C)C)C2 (stereo not drawn) [Example 31, Sodium salt of 2-methyl-[2-isopropyl-indanyl-(5)]-acetic acid]
solubility in water [3]: soluble in water

CC(C(=O)OCCN(C)C)c1ccc2c(c1)CC(C(C)C)C2 (stereo not drawn) [Example 27, Hydrochloride of the dimethylaminoethyl ester of 2-methyl-[2-isopropyl-indanyl-(5)]-acetic acid]
inhibition in vivo at 4 mg/kg [1]: 29% | inhibition in vivo at 16 mg/kg ([1]; 16 mg/kg oral): 54% | inhibition in vivo at 64 mg/kg ([1]; 64 mg/kg oral): 61% | inhibition in vivo at 128 mg/kg ([1]; 128 mg/kg oral): 64% | inhibition in vivo at 256 mg/kg ([1]; 256 mg/kg oral): 76% | ED50 [1]: 22 mg/kg | inhibition in vivo at 8 mg/kg [2, 4]: 7% | inhibition in vivo at 16 mg/kg [2, 5]: 42% | inhibition in vivo at 32 mg/kg [2, 6]: 69% | inhibition in vivo at 64 mg/kg [2, 7]: 94% | inhibition in vivo at 128 mg/kg [2, 8]: 99%

CC(C(=O)O)c1ccc2c(c1)CC(C(C)C)C2 (stereo not drawn) [Example 19, Dimethylaminoethanol salt of 2-methyl-[2-isopropyl-indanyl-(5)]-acetic acid]
percentage reduction in the inflammation ([1]; 8 mg/kg oral): 20% | percentage reduction in the inflammation ([1]; 16 mg/kg oral): 44% | percentage reduction in the inflammation ([1]; 32 mg/kg oral): 48% | percentage reduction in the inflammation ([1]; 64 mg/kg oral): 63% | percentage reduction in the inflammation ([1]; 128 mg/kg oral): 67% | inhibition in vivo at 4 mg/kg [1]: 25% | inhibition in vivo at 256 mg/kg ([1]; 256 mg/kg oral): 82% | ED50 (50% effective dose), anti-inflammatory [1]: 30 mg/kg | percentage inhibition of pain reactions ([2]; 8 mg/kg oral): 31% | percentage inhibition of pain reactions ([2]; 16 mg/kg oral): 54% | percentage inhibition of pain reactions ([2]; 32 mg/kg oral): 82% | inhibition in vivo at 4 mg/kg ([2]; Mus musculus, po, 4 mg/kg oral, read-out: percentage inhibition of pain reactions): 5% | inhibition in vivo at 64 mg/kg [2, 7]: 96% | ED50 (50% effective dose), analgesic [2]: 14 mg/kg

CC1CC(C)c2cc(CC(=O)O)c(Cl)cc21 (stereo not drawn) [Example 3, [6-Chloro-1,3-dimethyl-indanyl-(5)]-acetic acid]
inhibition in vivo at 64 mg/kg ([1]; 64 mg/kg oral): 24% | inhibition in vivo at 128 mg/kg ([1]; 128 mg/kg oral): 36% | inhibition in vivo at 256 mg/kg ([1]; 256 mg/kg oral): 56% | ED50 [1]: 200 mg/kg | inhibition in vivo at 16 mg/kg [2, 5]: 33% | inhibition in vivo at 32 mg/kg [2, 6]: 51% | inhibition in vivo at 64 mg/kg [2, 7]: 66% | inhibition in vivo at 128 mg/kg [2, 8]: 66% | inhibition in vivo at 256 mg/kg [2, 7]: 94% | ED50 ([2]; Mus musculus, po): 33 mg/kg

CC(C(=O)OCCN1CCOCC1)c1ccc2c(c1)CC(C1CCCCC1)C2 (stereo not drawn) [Example 25, Hydrochloride of the morpholino-ethyl ester of 2-methyl-[2-cyclohexyl-indanyl-(5)]-acetic acid]
inhibition in vivo at 16 mg/kg ([1]; 16 mg/kg oral): 26% | inhibition in vivo at 32 mg/kg ([1]; 32 mg/kg oral): 28% | inhibition in vivo at 64 mg/kg ([1]; 64 mg/kg oral): 7% | inhibition in vivo at 128 mg/kg ([1]; 128 mg/kg oral): 12% | inhibition in vivo at 256 mg/kg ([1]; 256 mg/kg oral): 10% | ED50 [1]: > 256 mg/kg | inhibition in vivo at 32 mg/kg [2, 6]: 19% | inhibition in vivo at 64 mg/kg [2, 7]: 50% | inhibition in vivo at 128 mg/kg [2, 8]: 64% | ED50 ([2]; Mus musculus, po): 80 mg/kg

CC1Cc2ccc(CC(=O)O)cc2C1 (stereo not drawn) [Example 12, [2-Methyl-indanyl-(5)]-acetic acid]
inhibition in vivo at 16 mg/kg ([1]; 16 mg/kg oral): 15% | inhibition in vivo at 32 mg/kg ([1]; 32 mg/kg oral): 23% | inhibition in vivo at 64 mg/kg ([1]; 64 mg/kg oral): 49% | inhibition in vivo at 128 mg/kg ([1]; 128 mg/kg oral): 71% | inhibition in vivo at 256 mg/kg ([1]; 256 mg/kg oral): 80% | ED50 [1]: 70 mg/kg | inhibition in vivo at 32 mg/kg [2, 6]: 9% | inhibition in vivo at 64 mg/kg [2, 7]: 20% | inhibition in vivo at 128 mg/kg [2, 8]: 46% | inhibition in vivo at 256 mg/kg [2, 7]: 67% | inhibition in vivo at 512 mg/kg [2, 7]: 75% | ED50 ([2]; Mus musculus, po): 175 mg/kg

O=C(O)Cc1ccc2c(c1)CC(C1CCCCC1)C2 (stereo not drawn) [Example 11, [2-Cyclohexyl-indanyl-(5)]-acetic acid]
inhibition in vivo at 32 mg/kg ([1]; 32 mg/kg oral): 4% | inhibition in vivo at 64 mg/kg ([1]; 64 mg/kg oral): 8% | inhibition in vivo at 128 mg/kg ([1]; 128 mg/kg oral): 13% | inhibition in vivo at 256 mg/kg ([1]; 256 mg/kg oral): 13% | inhibition in vivo at 512 mg/kg [1]: 32% | ED50 [1]: > 512 mg/kg | inhibition in vivo at 32 mg/kg [2, 6]: 15% | inhibition in vivo at 64 mg/kg [2, 7]: 29% | inhibition in vivo at 128 mg/kg [2, 8]: 58% | inhibition in vivo at 256 mg/kg [2, 7]: 59% | inhibition in vivo at 512 mg/kg [2, 7]: 83% | ED50 ([2]; Mus musculus, po): 140 mg/kg

CC(C(=O)OCCN1CCCC1)c1ccc2c(c1)CC(C(C)C)C2 (stereo not drawn) [Example 32, Maleate of the pyrrolidino-ethyl ester of 2-methyl-[2-isopropyl-indanyl-(5)]-acetic acid]
inhibition in vivo at 4 mg/kg [1]: 19% | inhibition in vivo at 16 mg/kg ([1]; 16 mg/kg oral): 21% | inhibition in vivo at 64 mg/kg ([1]; 64 mg/kg oral): 59% | inhibition in vivo at 128 mg/kg ([1]; 128 mg/kg oral): 55% | ED50 [1]: 65 mg/kg | inhibition in vivo at 8 mg/kg [2, 4]: 6% | inhibition in vivo at 16 mg/kg [2, 5]: 47% | inhibition in vivo at 32 mg/kg [2, 6]: 79% | inhibition in vivo at 64 mg/kg [2, 7]: 99% | ED50 ([2]; Mus musculus, po): 18 mg/kg

CCC(C(=O)O)c1ccc2c(c1)CC(C(C)C)C2 (stereo not drawn) [Example 17, 2-Ethyl-[2-isopropyl-indanyl-(5)]-acetic acid]
percentage reduction in the inflammation ([1]; 32 mg/kg oral): 24% | percentage reduction in the inflammation ([1]; 64 mg/kg oral): 30% | percentage reduction in the inflammation ([1]; 128 mg/kg oral): 38% | percentage reduction in the inflammation ([1]; 256 mg/kg oral): 43% | inhibition in vivo at 16 mg/kg ([1]; 16 mg/kg oral): 13% | ED50 (50% effective dose), anti-inflammatory [1]: > 256 mg/kg | percentage inhibition of pain reactions ([2]; 128 mg/kg oral): 70% | inhibition in vivo at 64 mg/kg [2, 7]: 28% | inhibition in vivo at 256 mg/kg [2, 7]: 83% | inhibition in vivo at 512 mg/kg [2, 7]: 100% | ED50 (50% effective dose), analgesic [2]: 100 mg/kg

CC1Cc2ccc(C(C)C(=O)OCCN3CCOCC3)cc2C1 (stereo not drawn) [Example 22, Oxalate of the morpholino-ethyl ester of 2-methyl-[2-methyl-indanyl-(5)]-acetic acid]
inhibition in vivo at 16 mg/kg ([1]; 16 mg/kg oral): 17% | inhibition in vivo at 32 mg/kg ([1]; 32 mg/kg oral): 7% | inhibition in vivo at 64 mg/kg ([1]; 64 mg/kg oral): 12% | inhibition in vivo at 128 mg/kg ([1]; 128 mg/kg oral): 11% | inhibition in vivo at 256 mg/kg ([1]; 256 mg/kg oral): 34% | inhibition in vivo at 512 mg/kg [1]: 52% | ED50 [1]: 480 mg/kg | inhibition in vivo at 16 mg/kg [2, 5]: 13% | inhibition in vivo at 32 mg/kg [2, 6]: 19% | inhibition in vivo at 64 mg/kg [2, 7]: 73% | inhibition in vivo at 128 mg/kg [2, 8]: 86% | inhibition in vivo at 256 mg/kg [2, 7]: 98% | ED50 ([2]; Mus musculus, po): 45 mg/kg

Reference: patent US4182896A, “Indane derivatives” (Societe Hexachimie, priority 1974, dated 1980)
